Laboratory results reported in the supplement of paper PMC4977894.
± gives the standard deviation of the averaged measurements.

Key:
[1] = test system: Homo sapiens (human subject panel, olfactory perception); test: perceived odor intensity rating (rating 0-100); higher = stronger perceived smell
Outline: (§1)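 Fifty-five healthy human subjects aged 18–50 took part, and the six lowest performers were excluded. Each molecule was diluted in paraffin oil at high and low concentrations, and 1 mL was sniffed in randomized order over ten visits of 100 stimuli each. Subjects who reported smelling a stimulus rated it on a computerized slider that started at 50 and had to be moved, with positions converted to a 0–100 scale. The familiarity, intensity and pleasantness values are averages across subjects.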

[2] = test system: Homo sapiens (human subject panel, olfactory perception); test: perceived odor pleasantness rating (rating 0-100); higher = more pleasant
Outline: as §1

[3] = test system: Homo sapiens (human subject panel, olfactory perception); test: perceived odor familiarity rating (rating 0-100); higher = more familiar
Outline: as §1

[4] = odor dilution in paraffin oil: 1/1,000
[5] = odor dilution in paraffin oil: 1/100,000
[6] = odor dilution in paraffin oil: 1/10
[7] = odor dilution in paraffin oil: 1/10,000,000

SMILES | perceived odor intensity rating [1, 4] | perceived odor intensity rating [1, 5] | perceived odor pleasantness rating [2, 4] | perceived odor pleasantness rating [2, 5] | perceived odor familiarity rating [3, 4] | perceived odor familiarity rating [3, 5] | perceived odor intensity rating [1, 6] | perceived odor pleasantness rating [2, 6] | perceived odor familiarity rating [3, 6] | perceived odor intensity rating [1, 7] | perceived odor pleasantness rating [2, 7] | perceived odor familiarity rating [3, 7]
C=C(C)C1CC=C(C)C(OC(C)=O)C1 (stereo unspecified) [carvyl acetate] | 75 ± 25 | 38.6 ± 33 | 27.2 ± 22 | 44.1 ± 23 | 43.5 ± 32 | 37.2 ± 30 | – | – | – | – | – | –
OC/C=C/c1ccccc1 [cinnamyl alcohol] | 75.8 ± 21 | 60.3 ± 28 | 47.4 ± 31 | 42.9 ± 28 | 52.6 ± 34 | 53.7 ± 33 | – | – | – | – | – | –
CCCCCC/C=C\CO [cis-2-Nonen-1-ol] | 77.9 ± 21 | 54.7 ± 32 | 34.7 ± 25 | 36 ± 21 | 46.3 ± 30 | 40.8 ± 30 | – | – | – | – | – | –
CC/C=C\CCO [cis-3-Hexen-1-ol] | 81.9 ± 16 | 39.7 ± 28 | 51 ± 31 | 60 ± 22 | 69.6 ± 30 | 60.5 ± 30 | – | – | – | – | – | –
CC/C=C\CCOC(=O)c1ccccc1 [cis-3-Hexenyl benzoate] | 40.4 ± 31 | 28.1 ± 26 | 40.8 ± 19 | 51.2 ± 13 | 36.3 ± 28 | 34 ± 23 | – | – | – | – | – | –
CC/C=C\CCOC(=O)C(C)C [cis-3-Hexenyl isobutyrate] | 73.3 ± 25 | 30 ± 28 | 47.1 ± 29 | 40.8 ± 22 | 55.4 ± 31 | 40.1 ± 30 | – | – | – | – | – | –
CC/C=C\CCOC(=O)C(C)O (stereo not drawn) [cis-3-Hexenyl lactate] | 67.2 ± 29 | 30.3 ± 28 | 51.7 ± 26 | 46.7 ± 22 | 57.1 ± 31 | 38.6 ± 30 | – | – | – | – | – | –
CC/C=C\CCOC(=O)Cc1ccccc1 [cis-3-Hexenyl phenylacetate] | 51 ± 31 | 14.4 ± 23 | 40.1 ± 26 | 52.2 ± 25 | 41.3 ± 30 | 37.5 ± 32 | – | – | – | – | – | –
CC/C=C\CCOC(=O)CC [cis-3-Hexenyl propionate] | 61.7 ± 26 | 20.4 ± 23 | 64.4 ± 28 | 52 ± 20 | 60.9 ± 30 | 30.7 ± 28 | – | – | – | – | – | –
CC/C=C\CCOC(=O)c1ccccc1O [cis-3-Hexenyl salicylate] | 49.2 ± 30 | 9.75 ± 16 | 48.1 ± 26 | 49.8 ± 24 | 40.2 ± 26 | 36.8 ± 33 | – | – | – | – | – | –
C/C=C(\C)C(=O)OCC/C=C\CC [cis-3-Hexenyl tiglate] | 45.7 ± 30 | – | 47.6 ± 28 | – | 47.9 ± 30 | – | 79.2 ± 18 | 47.2 ± 31 | 53.4 ± 31 | – | – | –
CC/C=C\CCOC(C)=O [cis-3-hexenyl acetate] | 76.7 ± 22 | 41 ± 31 | 63.8 ± 30 | 70.9 ± 20 | 73.6 ± 28 | 64.7 ± 30 | – | – | – | – | – | –
CCCCC/C=C\CCCO [cis-4-Decen-1-ol] | 65.4 ± 26 | 29.2 ± 32 | 49.2 ± 25 | 53.6 ± 27 | 49.8 ± 29 | 40.3 ± 32 | – | – | – | – | – | –
CC/C=C\CCC=O [cis-4-Heptenal] | – | 66.8 ± 29 | – | 28.7 ± 25 | – | 46.1 ± 33 | – | – | – | 56.2 ± 31 | 32.5 ± 26 | 45.2 ± 31
CC/C=C\CCCCO [cis-5-Octen-1-ol] | 75.7 ± 20 | 40.6 ± 30 | 59.3 ± 28 | 66.6 ± 21 | 69.2 ± 27 | 59.5 ± 29 | – | – | – | – | – | –
O=c1ccc2ccccc2o1 [coumarin] | 62.8 ± 26 | – | 65.1 ± 25 | – | 55.9 ± 31 | – | 77.5 ± 16 | 67.2 ± 26 | 63.8 ± 30 | – | – | –
CC(C)c1ccc(C=O)cc1 [cuminaldehyde] | 59.1 ± 31 | 16.2 ± 20 | 51.2 ± 28 | 58.1 ± 26 | 50.9 ± 35 | 31.3 ± 26 | – | – | – | – | – | –
C=C(C)[C@H]1CC=C(C)CC1 [d-Limonene] | 29.6 ± 26 | 45.4 ± 36 | 52.6 ± 21 | 30.9 ± 25 | 43.6 ± 28 | 41.1 ± 28 | – | – | – | – | – | –

SMILES | perceived odor intensity rating [1, 4] | perceived odor intensity rating [1, 5] | perceived odor pleasantness rating [2, 4] | perceived odor pleasantness rating [2, 5] | perceived odor familiarity rating [3, 4] | perceived odor familiarity rating [3, 5] | perceived odor intensity rating [1, 6] | perceived odor pleasantness rating [2, 6] | perceived odor familiarity rating [3, 6] | perceived odor intensity rating [1, 7] | perceived odor pleasantness rating [2, 7] | perceived odor familiarity rating [3, 7]
CCCCCCCCCC=O [decanal] | 59.9 ± 25 | – | 33.3 ± 23 | – | 44 ± 30 | – | 78.9 ± 20 | 28.7 ± 23 | 51.9 ± 35 | – | – | –
CCCCCCCCCC(=O)O [decanoic acid] | 50.2 ± 30 | – | 28.7 ± 19 | – | 40.6 ± 29 | – | 75.9 ± 22 | 28.3 ± 26 | 47.4 ± 34 | – | – | –
CCCCCCCCCCO [decanol] | 66 ± 27 | 29.1 ± 24 | 38.6 ± 28 | 46.8 ± 25 | 49.6 ± 33 | 39.4 ± 32 | – | – | – | – | – | –
CCCCCC1CCCC(=O)O1 (stereo unspecified) [delta-Decalactone] | 65.7 ± 28 | 52 ± 28 | 69.3 ± 22 | 72.4 ± 20 | 62.5 ± 28 | 60.8 ± 29 | – | – | – | – | – | –
CC1CCCC(=O)O1 (stereo unspecified) [delta-Hexalactone] | 48.4 ± 32 | 18.4 ± 21 | 45 ± 25 | 50.5 ± 21 | 38.8 ± 31 | 32.7 ± 28 | – | – | – | – | – | –
CCCCCCCCCC1CCCC(=O)O1 (stereo unspecified) [delta-Tetradecalactone (replicate)] | 33 ± 30 | 13.9 ± 20 | 41.9 ± 20 | 51.2 ± 20 | 37.7 ± 24 | 26 ± 28 | – | – | – | – | – | –
CCCCCCCCCC1CCCC(=O)O1 (stereo unspecified) [delta-Tetradecalactone] | 33.7 ± 26 | 20.7 ± 24 | 45.5 ± 24 | 48.1 ± 22 | 47.2 ± 27 | 33 ± 25 | – | – | – | – | – | –
CCCCCCC1CCCC(=O)O1 (stereo unspecified) [delta-Undecalactone] | 64.9 ± 28 | 34.4 ± 30 | 60.7 ± 31 | 60.7 ± 25 | 51.5 ± 33 | 41.4 ± 30 | – | – | – | – | – | –
CCOC(=O)CCC(=O)OCC [diethyl succinate] | 47.1 ± 29 | – | 57.7 ± 24 | – | 44.4 ± 30 | – | 70.6 ± 24 | 60.9 ± 22 | 53.4 ± 30 | – | – | –
COC(=O)CCC(=O)OC [dimethyl succinate] | 53.9 ± 29 | – | 43.6 ± 22 | – | 43.2 ± 29 | – | 63.2 ± 28 | 49.1 ± 27 | 46.2 ± 31 | – | – | –
CCCSSCCC [dipropyl disulfide] | 79.9 ± 21 | 59.7 ± 31 | 35.9 ± 26 | 40.1 ± 28 | 65.6 ± 31 | 65.5 ± 30 | – | – | – | – | – | –
O=C1CCCCCN1 [epsilon-Caprolactam] | 31.3 ± 33 | – | 40.9 ± 26 | – | 39.4 ± 35 | – | 30.6 ± 30 | 46 ± 25 | 31.2 ± 28 | – | – | –
CCO [ethanol] | 19.5 ± 28 | 14.2 ± 18 | 60.9 ± 23 | 49.6 ± 23 | 41.4 ± 31 | 34.1 ± 28 | – | – | – | – | – | –
CCOC(C)=O [ethyl acetate] | 40.3 ± 29 | 19.3 ± 24 | 45.2 ± 22 | 45.7 ± 29 | 44.2 ± 30 | 40 ± 32 | – | – | – | – | – | –
CCCC(=O)OCC [ethyl butyrate] | 77.8 ± 20 | 49.6 ± 32 | 61.1 ± 33 | 59.6 ± 26 | 65.6 ± 29 | 53.5 ± 30 | – | – | – | – | – | –
CCOC(=O)/C=C/c1ccccc1 [ethyl cinnamate] | 61.5 ± 29 | 55.2 ± 27 | 54.8 ± 26 | 63.1 ± 24 | 43.8 ± 29 | 43.3 ± 27 | – | – | – | – | – | –
CCCCCC(=O)OCC [ethyl hexanoate] | 73.9 ± 20 | 53.3 ± 28 | 78.6 ± 19 | 71.6 ± 16 | 69.4 ± 27 | 56.4 ± 29 | – | – | – | – | – | –
CCOC(=O)CC [ethyl propionate] | 75.7 ± 24 | 53.9 ± 32 | 39.9 ± 31 | 31.3 ± 30 | 50.7 ± 31 | 44.5 ± 34 | – | – | – | – | – | –
